Measured values from patent US20220220128A1, “HETEROCYCLIC COMPOUNDS AS KINASE INHIBITORS, COMPOSITIONS COMPRISING THE HETEROCYCLIC COMPOUND, AND METHODS OF USE THEREOF” (JS Innopharm (Shanghai) Ltd, priority 2019, published 2022).

Tests used:
TT cells = test: TT Cell Proliferation Assay (WST-8, 8 days); assay type: cell-based; conditions: Homo sapiens, TT, 192 h, growth inhibition in TT cells, read-out: TT Cellular Activity
Method in brief: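 TT cells, 6,000/well in RPMI-1640 with 10% FBS, attached 24 h, then exposed to compound at 5 μM down to 0.0005 μM final (0.5% DMSO) for 8 days at 37 °C. WST-8 added for 5 h, absorbance at 450 nm. IC50 calculated from the dilution series.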

human RET kinase = biological target: T1, human RET kinase (Homo sapiens, UniProt P07949); test: RET Kinase Assay (LanthaScreen TR-FRET enzymatic assay); assay type: biochemical; conditions: 7 nM RET, 23 μM ATP
T1 construct: purchased Carna 08-159
T1 sequence (P07949 29-1114): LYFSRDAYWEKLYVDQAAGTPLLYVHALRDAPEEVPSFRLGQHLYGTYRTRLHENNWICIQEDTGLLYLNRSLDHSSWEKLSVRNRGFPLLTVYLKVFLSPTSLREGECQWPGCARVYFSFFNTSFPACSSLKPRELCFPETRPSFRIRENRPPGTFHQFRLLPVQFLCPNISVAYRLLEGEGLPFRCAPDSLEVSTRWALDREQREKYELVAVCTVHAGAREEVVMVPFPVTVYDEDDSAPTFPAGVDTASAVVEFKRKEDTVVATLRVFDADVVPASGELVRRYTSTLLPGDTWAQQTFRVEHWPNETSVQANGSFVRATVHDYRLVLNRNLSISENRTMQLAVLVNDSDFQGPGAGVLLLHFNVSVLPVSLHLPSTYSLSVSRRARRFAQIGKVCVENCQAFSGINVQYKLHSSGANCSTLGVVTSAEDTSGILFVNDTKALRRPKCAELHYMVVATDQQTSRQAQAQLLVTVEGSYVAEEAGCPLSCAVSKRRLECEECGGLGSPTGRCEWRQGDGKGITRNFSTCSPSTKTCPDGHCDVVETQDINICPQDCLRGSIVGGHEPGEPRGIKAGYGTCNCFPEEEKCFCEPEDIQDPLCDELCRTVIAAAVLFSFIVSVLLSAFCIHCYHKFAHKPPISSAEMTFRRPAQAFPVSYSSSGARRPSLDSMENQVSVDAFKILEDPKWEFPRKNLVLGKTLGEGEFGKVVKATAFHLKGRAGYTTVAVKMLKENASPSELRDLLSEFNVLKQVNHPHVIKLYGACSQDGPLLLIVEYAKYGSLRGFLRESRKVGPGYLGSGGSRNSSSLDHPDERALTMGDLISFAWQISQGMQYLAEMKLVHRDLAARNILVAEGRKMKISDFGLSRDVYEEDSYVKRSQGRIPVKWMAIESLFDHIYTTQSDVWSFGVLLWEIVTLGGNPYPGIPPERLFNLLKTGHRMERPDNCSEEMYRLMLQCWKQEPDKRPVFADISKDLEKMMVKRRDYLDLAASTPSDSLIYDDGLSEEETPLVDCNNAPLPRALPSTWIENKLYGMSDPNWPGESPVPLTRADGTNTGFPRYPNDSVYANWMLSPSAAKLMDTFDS
Method in brief: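 Human RET (7 nM) preincubated 15 min with compound in 50 mM HEPES pH 7.5, 0.0015% Brij-35, then reacted with 3 μM FAM-P2 peptide and 23 μM ATP for 1 h at 28° C.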

human KDR kinase = biological target: T2, human KDR kinase (Homo sapiens, UniProt P35968); test: KDR Kinase Assay (LanthaScreen TR-FRET enzymatic assay); assay type: biochemical; conditions: 1.2 nM KDR, 92 μM ATP
T2 construct: purchased Carna 08-191
T2 sequence (P35968 20-1356): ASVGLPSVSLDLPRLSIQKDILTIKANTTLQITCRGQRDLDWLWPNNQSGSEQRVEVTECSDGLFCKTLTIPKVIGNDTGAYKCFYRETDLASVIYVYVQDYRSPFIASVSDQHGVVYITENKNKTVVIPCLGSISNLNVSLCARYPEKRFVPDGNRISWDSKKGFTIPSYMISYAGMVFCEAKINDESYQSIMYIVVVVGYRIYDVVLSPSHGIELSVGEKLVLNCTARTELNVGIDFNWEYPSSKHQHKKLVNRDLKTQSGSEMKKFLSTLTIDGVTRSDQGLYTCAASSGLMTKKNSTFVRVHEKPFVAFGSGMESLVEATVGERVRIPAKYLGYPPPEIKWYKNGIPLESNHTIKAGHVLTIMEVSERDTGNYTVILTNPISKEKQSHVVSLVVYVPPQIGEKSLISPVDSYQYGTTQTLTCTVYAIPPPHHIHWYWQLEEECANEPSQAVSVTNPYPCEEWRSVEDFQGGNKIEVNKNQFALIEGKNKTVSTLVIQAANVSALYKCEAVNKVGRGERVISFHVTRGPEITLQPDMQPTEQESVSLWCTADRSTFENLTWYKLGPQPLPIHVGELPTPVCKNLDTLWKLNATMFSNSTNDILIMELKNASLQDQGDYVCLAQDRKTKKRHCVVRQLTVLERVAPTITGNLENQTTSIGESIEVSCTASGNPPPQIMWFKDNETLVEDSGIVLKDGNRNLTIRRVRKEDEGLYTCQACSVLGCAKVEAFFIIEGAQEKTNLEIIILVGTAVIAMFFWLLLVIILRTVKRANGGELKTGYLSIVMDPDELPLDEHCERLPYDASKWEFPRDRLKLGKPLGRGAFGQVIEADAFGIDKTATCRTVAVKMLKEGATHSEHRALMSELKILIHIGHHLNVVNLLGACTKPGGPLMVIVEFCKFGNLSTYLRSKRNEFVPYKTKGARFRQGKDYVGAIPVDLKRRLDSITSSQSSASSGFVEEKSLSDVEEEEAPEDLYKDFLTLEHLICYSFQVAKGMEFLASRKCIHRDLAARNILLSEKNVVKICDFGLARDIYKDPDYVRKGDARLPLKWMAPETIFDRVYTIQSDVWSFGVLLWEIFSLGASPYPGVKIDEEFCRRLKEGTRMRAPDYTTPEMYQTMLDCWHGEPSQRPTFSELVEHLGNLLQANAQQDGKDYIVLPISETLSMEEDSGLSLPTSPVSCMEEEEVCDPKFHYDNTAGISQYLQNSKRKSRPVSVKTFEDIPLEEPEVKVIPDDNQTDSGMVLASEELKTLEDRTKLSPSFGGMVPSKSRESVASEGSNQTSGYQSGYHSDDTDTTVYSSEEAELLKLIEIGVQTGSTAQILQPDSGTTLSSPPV
Method in brief: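 Recombinant human KDR (1.2 nM) preincubated 15 min at room temperature with compound, then reacted with 3 μM FAM-P22 peptide and 92 μM ATP in 50 mM HEPES pH 7.5 for 1 h at 28° C. EDTA stop, then TR-FRET acceptor/donor ratio read; percent of 1% DMSO control fitted sigmoidally for IC50.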

| SMILES | IC50 (human RET kinase) [nM] | IC50 (human KDR kinase) [nM] | IC50 (TT cells) [nM] |
| --- | --- | --- | --- |
| CC(C)(O)COc1cc(-c2ccc(N3C[C@@H]4C[C@@](C)(NS(=O)(=O)c5c(F)cccc5Cl)C[C@@H]4C3)nc2)c2c(C#N)cnn2c1 [Example 197, 2-chloro-N-((3aR,5s,6aS)-2-(5-(3-cyano-6-(2-hydroxy-2-methylpropoxy)pyrazolo[1,5-a]pyridin-4-yl)pyridin-2-yl)-5-methyloctahydrocyclopenta[c]pyrrol-5-yl)-6-fluorobenzenesulfonamide] | ≤ 10 | 10 to 50 | 10 to 50 |
| CC(C)CC(=O)NC[C@@H]1[C@H]2CN(c3ccc(-c4cc(-c5cnn(C)c5)cn5ncc(C#N)c45)cn3)C[C@@H]12 [Example 88, N-(((1R,5S,6s)-3-(5-(3-cyano-6-(1-methyl-1H-pyrazol-4-yl)pyrazolo[1,5-a]pyridin-4-yl)pyridin-2-yl)-3-azabicyclo[3.1.0]hexan-6-yl)methyl)-3-methylbutanamide] | ≤ 10 | 10 to 50 | ≤ 10 |
| CCOc1cc(-c2ccc(N3C[C@@H]4C[C@@](C)(NC(=O)CC(C)C)C[C@@H]4C3)nc2)c2c(C#N)cnn2c1 [Example 62, N-((3aR,5s,6aS)-2-(5-(3-cyano-6-ethoxypyrazolo[1,5-a]pyridin-4-yl)pyridin-2-yl)-5-methyloctahydrocyclopenta[c]pyrrol-5-yl)-3-methylbutanamide] | ≤ 10 | 50 to 100 | 10 to 50 |
| Cn1cc(-c2cc(-c3ccc(N4C[C@@H]5C[C@@](C)(NC(=O)c6ncccc6F)C[C@@H]5C4)nc3)c3c(C#N)cnn3c2)cn1 [Example 91, N-((3aR,5s,6aS)-2-(5-(3-cyano-6-(1-methyl-1H-pyrazol-4-yl)pyrazolo[1,5-a]pyridin-4-yl)pyridin-2-yl)-5-methyloctahydrocyclopenta[c]pyrrol-5-yl)-3-fluoropicolinamide] | ≤ 10 | ≤ 10 | ≤ 10 |
| Cn1cc(-c2cc(-c3ccc(N4C[C@@H]5[C@@H](CNC(=O)c6ncccc6C(F)(F)F)[C@@H]5C4)nc3)c3c(C#N)cnn3c2)cn1 [Example 186, N-(((1R,5S,6s)-3-(5-(3-cyano-6-(1-methyl-1H-pyrazol-4-yl)pyrazolo[1,5-a]pyridin-4-yl)pyridin-2-yl)-3-azabicyclo[3.1.0]hexan-6-yl)methyl)-3-(trifluoromethyl)picolinamide] | ≤ 10 | ≤ 10 | ≤ 10 |
| CCOc1cc(-c2ccc(N3C[C@@H]4C[C@@](C)(NC(=O)c5cc(F)ccc5Cl)C[C@@H]4C3)nc2)c2c(C#N)cnn2c1 [Example 68, 2-chloro-N-((3aR,5s,6aS)-2-(5-(3-cyano-6-ethoxypyrazolo[1,5-a]pyridin-4-yl)pyridin-2-yl)-5-methyloctahydrocyclopenta[c]pyrrol-5-yl)-5-fluorobenzamide] | ≤ 10 | 50 to 100 | 10 to 50 |
| Cc1cccc(Cl)c1C(=O)NC[C@@H]1[C@H]2CN(c3ccc(-c4cc(-c5cnn(C)c5)cn5ncc(C#N)c45)cn3)C[C@@H]12 [Example 185, 2-chloro-N-(((1R,5S,6s)-3-(5-(3-cyano-6-(1-methyl-1H-pyrazol-4-yl)pyrazolo[1,5-a]pyridin-4-yl)pyridin-2-yl)-3-azabicyclo[3.1.0]hexan-6-yl)methyl)-6-methylbenzamide] | ≤ 10 | ≤ 10 | 10 to 50 |
| COc1cc(-c2ccc(N3C[C@@H]4C[C@@](C)(NC(=O)c5ncccc5Cl)C[C@@H]4C3)nc2)c2c(C#N)cnn2c1 [Example 52, 3-chloro-N-((3aR,5s,6aS)-2-(5-(3-cyano-6-methoxypyrazolo[1,5-a]pyridin-4-yl)pyridin-2-yl)-5-methyloctahydro-cyclopenta[c]pyrrol-5-yl)picolinamide] | ≤ 10 | 50 to 100 | 10 to 50 |
| CC(C)C(=O)N1C[C@@H]2CN(c3ccc(-c4cc(-c5cnn(C)c5)cn5ncc(C#N)c45)cn3)C[C@@H]2C1 [Example 10, 4-(6-((3aR,6aS)-5-isobutyrylhexahydropyrrolo[3,4-c]pyrrol-2(1H)-yl)pyridin-3-yl)-6-(1-methyl-1H-pyrazol-4-yl)pyrazolo[1,5-a]pyridine-3-carbonitrile] | ≤ 10 | 10 to 50 | 10 to 50 |

Further lines, with some results ahead:

| IC50 (human RET kinase) [nM] | IC50 (human KDR kinase) [nM] | SMILES | IC50 (TT cells) [nM] |
| --- | --- | --- | --- |
| ≤ 10 | 10 to 50 | COc1ccc(CN(C)[C@H]2[C@@H]3CN(c4ccc(-c5cc(-c6cnn(C)c6)cn6ncc(C#N)c56)cn4)C[C@@H]32)cn1 [Example 34, 4-(6-((1R,5S,6s)-6-(((6-methoxypyridin-3-yl)methyl)(methyl)amino)-3-azabicyclo[3.1.0]hexan-3-yl)pyridin-3-yl)-6-(1-methyl-1H-pyrazol-4-yl)pyrazolo[1,5-a]pyridine-3-carbonitrile] | 10 to 50 |
| ≤ 10 | 50 to 100 | CCOc1cc(-c2ccc(N3C[C@@H]4C[C@@](C)(NC(=O)c5c(F)cccc5Cl)C[C@@H]4C3)nc2)c2c(C#N)cnn2c1 [Example 66, 2-chloro-N-((3aR,5s,6aS)-2-(5-(3-cyano-6-ethoxypyrazolo[1,5-a]pyridin-4-yl)pyridin-2-yl)-5-methyloctaliydrocyclopenta[c]pyrrol-5-yl)-6-fluorobenzamide] | 10 to 50 |
| ≤ 10 | > 100 | CCOc1cc(-c2cnc(N3C[C@H]4C[C@H](NC(=O)c5ncccc5Cl)C[C@H]4C3)cn2)c2c(C#N)cnn2c1 [Example 50, 3-chloro-N-((3aR,5s,6aS)-2-(5-(3-cyano-6-ethoxypyrazolo[1,5-a]pyridin-4-yl)pyrazin-2-yl)octahydrocyclopenta[c]pyrrol-5-yl)picolinamide] | 10 to 50 |
| ≤ 10 | 10 to 50 | COc1ccc(CN2C[C@@H]3CN(c4ccc(-c5cc(-c6ccn(C)n6)cn6ncc(C#N)c56)cn4)C[C@@H]3C2)cn1 [Example 13, 4-(6-((3aR,6aS)-5-((6-methoxypyridin-3-yl)methyl)hexahydropyrrolo[3,4-c]pyrrol-2(1H)-yl)pyridin-3-yl)-6-(1-methyl-1H-pyrazol-3-yl)pyrazolo[1,5-a]pyridine-3-carbonitrile] | 10 to 50 |
| ≤ 10 | 10 to 50 | CC(C)[C@@H](O)C(=O)N[C@H]1[C@@H]2CN(c3ccc(-c4cc(-c5cnn(C)c5)cn5ncc(C#N)c45)cn3)C[C@@H]21 [Example 19, (R)-N-((1R,5S,6s)-3-(5-(3-cyano-6-(1-methyl-1H-pyrazol-4-yl)pyrazolo[1,5-a]pyridin-4-yl)pyridin-2-yl)-3-azabicyclo[3.1.0]hexan-6-yl)-2-hydroxy-3-methylbutanamide] | 10 to 50 |
| ≤ 10 | 10 to 50 | CC(C)(O)COc1cc(-c2ccc(N3C[C@@H]4[C@H](C3)[C@H]4NS(=O)(=O)c3c(F)cccc3Cl)nc2)c2c(C#N)cnn2c1 [Example 47, 2-chloro-N-((1R,5S,6s)-3-(5-(3-cyano-6-(2-hydroxy-2-methylpropoxy)pyrazolo[1,5-a]pyridin-4-yl)pyridin-2-yl)-3-azabicyclo[3.1.0]hexan-6-yl)-6-fluorobenzene-sulfonamide] | 10 to 50 |
